Assay results reported in patent US20170334899A1, “AMINO-SUBSTITUTED ISOTHIAZOLES” (Bayer Pharma Aktiengesellschaft, priority 2014, published 2017).

How the values were obtained:
CDK2/CycE = target: T1, CDK2/CycE (Homo sapiens, UniProt P24941); assay: CDK2/CycE kinase assay (TR-FRET); format: biochemical; settings: avg, read-out: CDK2 avg (IC50 [mol/l])
T1 construct: GST; purchased ProQinase GmbH (Freiburg, Germany); host or cells: insect cells (Sf9)
Procedure, shortened: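 Read-out is a TR-FRET 665/620 nm emission ratio from EDTA-stopped reactions detected with anti-pRB(pSer807/pSer811), Eu-labelled anti-mouse IgG and streptavidin-XL665, scaled between no-enzyme and uninhibited wells. Reaction: Sf9-expressed GST-CDK2/GST-CycE, 15 min compound preincubation, 10 μM ATP, 0.75 μM biotin-peptide, 25 min, 22° C., pH 8.0 Tris buffer.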

[1] = target: T2, catalytic domain of human Bub1 (amino acids 704-1085) (Homo sapiens, UniProt O43683); assay: Bub1 kinase assay (TR-FRET); format: biochemical; settings: 10 μM ATP, avg, read-out: Bub1 avg (IC50 [mol/l])
T2 construct: catalytic domain of human Bub1 (amino acids 704-1085); His6 (N); made in house; host or cells: insect cells (Hi5)
Procedure, shortened: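 Readout is the 665/620 nm TR-FRET ratio from anti-phosphoserine antibody, Eu-labelled anti-mouse IgG and streptavidin-XL665, scaled between no-enzyme and uninhibited controls. Reaction: 1 μM biotinylated peptide, 10 μM ATP, 60 min, 22 °C, after 15 min compound preincubation with His6-Bub1 (704-1085, insect-expressed, ~200 ng/ml).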

T2 sequence (O43683 704-1085): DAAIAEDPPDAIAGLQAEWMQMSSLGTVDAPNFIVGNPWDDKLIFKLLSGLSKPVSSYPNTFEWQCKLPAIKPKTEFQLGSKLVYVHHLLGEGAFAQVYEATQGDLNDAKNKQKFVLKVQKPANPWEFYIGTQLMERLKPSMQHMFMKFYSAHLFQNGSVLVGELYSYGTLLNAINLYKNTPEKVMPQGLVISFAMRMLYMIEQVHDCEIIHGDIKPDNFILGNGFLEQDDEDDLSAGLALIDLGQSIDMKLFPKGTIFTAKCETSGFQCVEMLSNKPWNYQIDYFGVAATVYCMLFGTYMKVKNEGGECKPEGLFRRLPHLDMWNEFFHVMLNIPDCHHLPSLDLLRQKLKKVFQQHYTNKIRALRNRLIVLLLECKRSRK

IC50 (CDK2/CycE) [µM] | IC50 [1] [µM] | Compound
15 | 4.3 | CNS(=O)(=O)c1ccc(NC(=O)c2c(C)nsc2Nc2cncc(C(F)(F)F)n2)cc1 [Example 211, 3-methyl-N-[4-(methylsulfamoyl)phenyl]-5-{[6-(trifluoromethyl)pyrazin-2-yl]amino}-1,2-thiazole-4-carboxamide]
> 20 | > 20 | Cc1nsc(Nc2cc(C#N)ccn2)c1C(=O)Nc1ccc(NC(=O)OC(C)(C)C)cc1 [Example 177, tert-butyl {4-[({5-[(4-cyanopyridin-2-yl)amino]-3-methyl-1,2-thiazol-4-yl}carbonyl)amino]phenyl}carbamate]
> 20 | > 20 | Cc1nsc(Nc2ccc(C#N)cn2)c1C(=O)Nc1ccc(F)c(C(N)=O)c1 [Example 203, N-(3-carbamoyl-4-fluorophenyl)-5-[(5-cyanopyridin-2-yl)amino]-3-methyl-1,2-thiazole-4-carboxamide]
> 20 | > 20 | Cc1nsc(Nc2cnc3ccccc3n2)c1C(=O)Nc1ccc(F)c(C(N)=O)c1 [Example 202, N-(3-carbamoyl-4-fluorophenyl)-3-methyl-5-(quinoxalin-2-ylamino)-1,2-thiazole-4-carboxamide]
> 20 | > 20 | Cc1nsc(Nc2cnc3ccccc3n2)c1C(=O)Nc1ccccc1S(C)(=O)=O [Example 188, 3-methyl-N-[2-(methylsulfonyl)phenyl]-5-(quinoxalin-2-ylamino)-1,2-thiazole-4-carboxamide]
> 20 | > 20 | Cc1nsc(Nc2cncc(C(F)(F)F)n2)c1C(=O)Nc1ccc(OC2CCN(C(C)C)CC2)nc1 [Example 218, N-{6-[(1-isopropylpiperidin-4-yl)oxy]pyridin-3-yl}-3-methyl-5-{[6-(trifluoromethyl)pyrazin-2-yl]amino}-1,2-thiazole-4-carboxamide]
> 20 | > 20 | CC(=O)Nc1cc(NC(=O)c2c(C)nsc2Nc2cnccn2)ccc1F [Example 205, N-(3-acetamido-4-fluorophenyl)-3-methyl-5-(pyrazin-2-ylamino)-1,2-thiazole-4-carboxamide]
> 20 | > 20 | Cc1nsc(Nc2cncc(C(F)(F)F)n2)c1C(=O)Nc1ccc(OCCNC(=O)OC(C)(C)C)c(F)c1 [Example 216, tert-butyl [2-(2-fluoro-4-{[(3-methyl-5-{[6-(trifluoromethyl)pyrazin-2-yl]amino}-1,2-thiazol-4-yl)carbonyl]amino}phenoxy)ethyl]carbamate]
> 20 | > 20 | CNS(=O)(=O)c1ccc(NC(=O)c2c(C)nsc2Nc2cc(C#N)ccn2)cc1 [Example 210, 5-[(4-cyanopyridin-2-yl)amino]-3-methyl-N-[4-(methylsulfamoyl)phenyl]-1,2-thiazole-4-carboxamide]
> 20 | > 20 | Cc1nsc(Nc2cncc(C(F)(F)F)n2)c1C(=O)Nc1ccc(OC2CCN(CCF)CC2)c(F)c1 [Example 223, N-(3-fluoro-4-{[1-(2-fluoroethyl)piperidin-4-yl]oxy}phenyl)-3-methyl-5-{[6-(trifluoromethyl)pyrazin-2-yl]amino}-1,2-thiazole-4-carboxamide]
≥ 20 | ≥ 20 | Cc1nsc(Nc2cnc3ccccc3n2)c1C(=O)Nc1ccc(OC2CCN(C(=O)OC(C)(C)C)CC2)nc1 [Example 18, tert-Butyl 4-{[5-({[3-methyl-5-(quinoxalin-2-ylamino)-1,2-thiazol-4-yl]carbonyl}-amino)pyridin-2-yl]oxy}piperidine-1-carboxylate]
≥ 20 | ≥ 20 | Cc1nsc(Nc2cnc3ccccc3n2)c1C(=O)Nc1ccc(OC2CCN(CC(F)F)CC2)nc1 [Example 20, N-(6-{[1-(2,2-difluoroethyl)piperidin-4-yl]oxy}pyridin-3-yl)-3-methyl-5-(quinoxalin-2-ylamino)-1,2-thiazole-4-carboxamide]
> 20 | > 20 | Cc1nsc(Nc2cnc3ccccc3n2)c1C(=O)Nc1ccc(OCCC(=O)OC(C)(C)C)nc1 [Example 198, tert-butyl 3-{[5-({[3-methyl-5-(quinoxalin-2-ylamino)-1,2-thiazol-4-yl]carbonyl}amino)pyridin-2-yl]oxy}propanoate]
> 20 | > 20 | Cc1nsc(Nc2ccc(C#N)cn2)c1C(=O)Nc1cccc(C(=O)OC(C)(C)C)c1 [Example 240, tert-butyl 3-[({5-[(5-cyanopyridin-2-yl)amino]-3-methyl-1,2-thiazol-4-yl}carbonyl)amino]benzoate]
≥ 20 | ≥ 20 | Cc1nsc(Nc2cnc3ccccc3n2)c1C(=O)Nc1ccc(OC2CCNCC2)nc1 [Example 19, 3-Methyl-N-[6-(piperidin-4-yloxy)pyridin-3-yl]-5-(quinoxalin-2-ylamino)-1,2-thiazole-4-carboxamide]
12 | > 20 | Cc1nsc(Nc2cncc(C(F)(F)F)n2)c1C(=O)Nc1ccc(C(=O)OC(C)(C)C)cc1 [Example 193, tert-butyl tert-butyl 4-{[(3-methyl-5-{[6-(trifluoromethyl)pyrazin-2-yl]amino}-1,2-thiazol-4-yl)carbonyl]amino}benzoate]
> 20 | > 20 | Cc1nsc(Nc2cnc3ccccc3n2)c1C(=O)Nc1cccc(NC(=O)C(C)(C)C)c1 [Example 186, N-{3-[(2,2-dimethylpropanoyl)amino]phenyl}-3-methyl-5-(quinoxalin-2-ylamino)-1,2-thiazole-4-carboxamide]
> 20 | > 20 | Cc1nsc(Nc2cnc3ccccc3n2)c1C(=O)Nc1ccc(C(N)=O)c(F)c1 [Example 201, N-(4-carbamoyl-3-fluorophenyl)-3-methyl-5-(quinoxalin-2-ylamino)-1,2-thiazole-4-carboxamide]
> 20 | > 20 | Cc1nsc(Nc2cnc3ccccc3n2)c1C(=O)Nc1ccc(NCC2CCN(C(=O)OC(C)(C)C)CC2)nc1 [Example 238, tert-butyl 4-({[5-({[3-methyl-5-(quinoxalin-2-ylamino)-1,2-thiazol-4-yl]carbonyl}amino)pyridin-2-yl]amino}methyl)piperidine-1-carboxylate]
> 20 | > 20 | Cc1nsc(Nc2cncc(C(F)(F)F)n2)c1C(=O)Nc1ccc(C(=O)NC2CCN(CC(F)F)CC2)cc1 [Example 225, N-N-(4-{[1-(2,2-difluoroethyl)piperidin-4-yl]carbamoyl}phenyl)-3-methyl-5-{[6-(trifluoromethyl)pyrazin-2-yl]amino}-1,2-thiazole-4-carboxamide]
– | > 20 | Cc1nsc(Nc2cncc(C(F)(F)F)n2)c1C(=O)Nc1ccc(C(=O)NCCN2CCCC(F)(F)C2)cc1 [Example 214, N-(4-{[2-(3,3-difluoropiperidin-1-yl)ethyl]carbamoyl}phenyl)-3-methyl-5-{[6-(trifluoromethyl)pyrazin-2-yl]amino}-1,2-thiazole-4-carboxamide]
> 20 | – | Cc1nsc(Nc2cnc(C(F)(F)F)cn2)c1C(=O)Nc1cccc(S(C)(=O)=O)c1 [Example 195, 3-methyl-N-[3-(methylsulfonyl)phenyl]-5-{[5-(trifluoromethyl)pyrazin-2-yl]amino}-1,2-thiazole-4-carboxamide]
> 20 | – | Cc1nsc(Nc2cc(C#N)ccn2)c1C(=O)Nc1cccc(C(=O)NC2CC2)c1 [Example 175, 5-[(4-cyanopyridin-2-yl)amino]-N-[3-(cyclopropylcarbamoyl)phenyl]-3-methyl-1,2-thiazole-4-carboxamide]
